Patent publication US12023348B2, “EGR1 targeting molecules for the treatment of inflammatory and hyperproliferative conditions” (The Medical Research, Infrastructure and Health Services …, priority 2015, dated 2024)

Key:
SAMD9 promoter [1] = assay: High-throughput luciferase reporter screen in HeLa line stably expressing 585 bp SAMD9 promoter fragment; format: cell-based, human; conditions: IFN-γ 10 ng/ml for 24 hours (FIG. 1B)
SAMD9 promoter [2] = assay: Dual luciferase reporter assay in HeLa cells transiently transfected with SAMD9 promoter construct; format: cell-based, human; conditions: transient transfection, IFN-γ 10 ng/ml, 48 hours after transfection (FIG. 1A)
Text: SAMD9 promoter fragments cloned into pGL3 as previously described [Hershkovitz, D. et al. (2011) J Invest Dermatol 131: 662-9], were digested with KpnI and XhoI and subcloned into pGL4.17 [luc2/Neo] (Promega). The expression vector pGL4.17 encodes the luciferase reporter gene luc2 (Photinuspyralis) and contains a mammalian selectable marker for neomycin resistance. For transient transfection, SAMD9 promoter-luciferase constructs were transfected into HeLa cells using lipofectamine 2000 (Invitrogen, Carlsbad, CA) according to the manufacturer's instructions.
Cellular protein was extracted by adding 20 μl of Promega Lysis Buffer (PLB) (Promega) to each sample and incubated for a period of 15 minutes. Cell lysate was analyzed in a 96-well flat white plate (Greiner Bio-One, United Kingdom) where 100 μl of Luciferase Assay Reagent II (LAR II) (Promega) was added to each sample. Luminescence was ascertained using the Infinite M200 multimode microplate reader (Tecan Ltd, Minnedorf, Switzerland). After the initial reading, 100 μl of Stop & GloR Reagent (Promega) were dispensed into tested wells and Renilla luciferase levels were tested. The assay was completed after Luciferase levels were normalized to Renilla levels.
SAMD9 promoter activity was first analyzed using a luciferase reporter assay in HeLa cells. […]

## IFN-γ: interferon-gamma, previously identified as a strong inducer of SAMD9 expression
SAMD9 promoter [1]
  Response of stable SAMD9 promoter-luciferase HeLa cell line: respond robustly
SAMD9 promoter [2]
  SAMD9 promoter activity (luciferase): significantly induced
